According to patent US20250099582A1, “TREATMENT OF PATIENTS DIAGNOSED WITH PANCREATIC DUCTAL ADENOCARCINOMA USING MONOCLONAL ANTIBODIES AGAINST THE EPIDERMAL GROWTH FACTOR RECEPTOR (EGFR)” (INNOCIMAB PTE LTD, priority 2015, published 2025):
“Also recorded” adds a separate entry of the source.

Experiments:
[1] = tested on: PDAC patients; conditions: cited from earlier work
[2] = Same clinical trial: safety, serious adverse events (SAEs); assay type: in vivo, human; conditions: for number of serious adverse events (SAEs) reported in the arm: 93 patients per arm; for patients with serious adverse events (SAEs): of 93 patients in the arm
Experimental: (§1) One hundred and ninety two (192) newly diagnosed patients with locally advanced or metastatic pancreatic cancer were randomized and recruited into 2 arms, on the treatment arm patients were administered administered i.v infusion of nimotuzumab at 400 mg dose once a week until progressive disease or unacceptable toxicity and gemcitabine 1000 mg/m^2 once weekly for 3 weeks, followed by a 1-week rest (d1, 8, 15; q28) and on the control arm patients were administered i.v infusion of placebo once a week until progressive disease or unacceptable toxicity and gemcitabine 1000 mg/m^2 once weekly for 3 weeks, followed by a 1-week rest (d1, 8, 15; q28).
(§2) As a primary endpoint, overall survival (OS) in the intention-to-treat (ITT) population was evaluated. The OS was assessed by the date of the last visit, death or loss of the follow up. The OS was initially calculated for all population and then a subset analysis was run taking into consideration the KRAS status of each of the patients on each treatment arm. Secondary endpoints included progression free survival (PFS), assessed by the day of the progression or the death, safety, assessed by the incidence of adverse events (AE) or serious adverse events (SAE), objective response rate (ORR), assessed by the number of patients on each treatment arm with Complete Response (CR) and Partial Response (PR) to the treatment ((CR+PR)/N, No. patients in the arm)) and Quality of Life (QoL), assessed using EORTC quality of life questionnaire QLQ-C30 version 2.0 (EORTC, NL).

[3] = tested on: locally advanced or metastatic pancreatic cancer patients; experiment: Randomized clinical trial of gemcitabine plus nimotuzumab versus gemcitabine plus placebo: survival by KRAS status; assay type: in vivo, human; conditions: for overall survival (OS), Kaplan-Meier, versus placebo-gemcitabine arm / progression-free-survival (PFS), Kaplan-Meier, versus placebo-gemcitabine arm: nimotuzumab 400 mg i.v. once weekly + gemcitabine 1000 mg/m^2 (d1, 8, 15; q28)
Experimental: In this clinical trial patients with previously untreated, unresectable, locally advanced or metastatic pancreatic adenocarcinoma received gemcitabine (1000 mg/m^2/30-min iv once weekly (d1, 8, 15; q28)) and nimotuzumab (400 mg 30-min iv once weekly), or placebo until disease progression or unmanageable toxicity. The primary endpoint in this study was overall survival (OS) in the intention-to-treat (ITT) population. The secondary endpoints included progression free survival (PFS), safety, objective response rate (ORR), and Quality of Life (QoL).
as §1
Tumor response was assessed using CT (Computed Tomography) or MRI (Magnetic Resonance Imaging) and statistically analyzed using RECIST (Response Evaluation Criteria in Solid Tumors), which provides guidelines for identifying complete response, partial response, stable disease, or progressive disease based on tumor size (see, e.g., Therasse et al., February 2000, “New Guidelines to Evaluate the Response to Treatment in Solid Tumors,” J. Natl. Cancer Inst. 92 (3): 205-216) and overall survival was assessed by the last patient visit, death or loss of follow up.
Out of 192 patients that were randomized into 2 arms, tumor samples were taken from 101 patients (49 from the control arm and 52 from the treatment arm).
To determine if KRAS status correlates with survival the 101 samples were tested. From the KRAS analysis of the 101 samples, 34 samples were KRAS Wild Type (20 from the control arm and 14 from the treatment arm) and 67 samples has the mutation of the KRAS (29 from the control arm and 38 from the treatment arm).
as §2
Progression-free-survival (PFS) is defined as the length of time during and after the treatment of a disease, such as cancer, that a patient lives with the disease without worsening of the symptoms and was measured from date of randomization to the occurrence of progression or death or last date of observation without progression.

[4] = patients with KRAS mutated, FIG. 3
[5] = patients with KRAS wild type, FIG. 4

C#Cc1cccc(Nc2ncnc3cc(OCCOC)c(OCCOC)cc23)c1 [Erlotinib]
PDAC patients in whom treatment has shown benefit ([1]; Moore et al. J Clin Oncol. 2007): about 10% | prolongation of median survival ([1]; addition to gemcitabine): 2 weeks

Nc1ccn([C@@H]2O[C@H](CO)[C@@H](O)C2(F)F)c(=O)n1 [placebo-gemcitabine, gemcitabine, reference compound]
number of serious adverse events (SAEs) reported in the arm [2]: 104 SAEs | patients with serious adverse events (SAEs) [2]: 65.6%

nimotuzumab-gemcitabine: treatment arm: nimotuzumab 400 mg i.v. once a week plus gemcitabine 1000 mg/m^2 once weekly for 3 weeks, 1-week rest
overall survival (OS), Kaplan-Meier, versus placebo-gemcitabine arm [3, 4]: no difference | progression-free-survival (PFS), Kaplan-Meier, versus placebo-gemcitabine arm [3, 4]: no difference | overall survival (OS), Kaplan-Meier, versus placebo-gemcitabine arm [3, 5]: significant difference in favour of the treatment arm; also recorded: significant improvement | progression-free-survival (PFS), Kaplan-Meier, versus placebo-gemcitabine arm [3, 5]: significant difference in favour of the treatment arm; also recorded: significant improvement | overall survival (OS), Kaplan-Meier, versus placebo-gemcitabine arm ([3]; patients with KRAS wild type, FIG. 4, listed as nimotuzumab and gemcitabine): significantly improved | increase of median overall survival compared to control arm (placebo-gemcitabine) ([3]; subgroup of KRAS WT): 6 months | number of serious adverse events (SAEs) reported in the arm [2]: 108 SAEs | patients with serious adverse events (SAEs) [2]: 58.1%

nimotuzumab: anti-EGFR humanized monoclonal antibody produced by the cell line h-R3 deposited as ECACC 951110101
SAE related to study drug: general physical health deterioration, subjects ([2]; nimotuzumab arm): 3.23% | SAE related to study drug: nausea, subjects ([2]; nimotuzumab arm): 2.15% | SAE related to study drug: thrombocytopenia, subjects ([2]; nimotuzumab arm): 2.15% | SAE related to study drug: vomiting, subjects ([2]; nimotuzumab arm): 2.15% | patients with SAEs reported to be related to the study drug ([2]; nimotuzumab arm, of 93 patients): 16.1% | number of SAEs reported to be related to the study drug ([2]; nimotuzumab arm, of the 108 SAEs): 26 SAEs
